In brackets after ≈: the same amount, converted by molar mass. Where two headings read alike, the source gives them in different places. Each block holds one compound with its values, some of them ahead of it.
Tests used:
Format in all cases: cell-based
[1] = system: Enterococcus faecalis ATCC 29212; assay: Broth microdilution MIC/MBC
Source text: (§1) In vitro antimicrobial activity assays - Methodology
(§2) The examined compounds 1 - 24 were screened in vitro for antibacterial and antifungal activities using the broth microdilution method according to procedure reported earlier by our research group and European Committee on Antimicrobial Susceptibility Testing (EUCAST) and Clinical and Laboratory Standards Institute (CLSI) guidelines against a panel of reference and clinical or saprophytic strains of microorganisms, in-cluding Gram-positive bacteria, Staphylococcus aureus ATCC 43300 (Methicillin Resistant S. aureus – MRSA), Staphylococcus aureus ATCC 29213 (Methicillin Susceptible S. aureus – MSSA), Staphylococcus epidermidis ATCC 12228, Enterococcus faecalis ATCC 29212, Micro-coccus luteus ATCC 10240, Bacillus subtilis ATCC 6633 and Bacillus cereus ATCC 10876), Gram-negative bacteria (Bordetella bronchiseptica ATCC 4617, Escherichia coli ATCC 25922, Klebsiella pneumoniae ATCC 13883, Proteus mirabilis ATCC 12453, Salmonella typhimurium ATCC 14028 and Pseudomonas aeruginosa ATCC 9027) and fungi belonging to yeasts (Can-dida albicans ATCC 10231, Candida albicans ATCC 2091, Candida parapsilosis ATCC 22019, Candida glabrata ATCC 90030 and Candida krusei ATCC 14243). The microorganisms be-longing to ATCC came from American Type Culture Collection, routinely used for the evaluation of antimicrobials. All the used microbial cultures were first subcultured on nu-trient agar or Sabouraud agar at 35°C for 18-24 h or 30°C for 24-48 h for bacteria and fungi, […]
(§3) The surface of Mueller-Hinton agar (for bacteria) and RPMI 1640 with MOPS (for fungi) were inoculated with the suspensions of bacterial or fungal species. Microbial suspensions were prepared in sterile saline with an optical density of McFarland standard scale 0.5.
(§4) Samples containing examined compounds were dissolved in dimethyl sulfoxide (DMSO).
(§5) Furthermore, bacterial and fungal suspensions were put onto Petri dishes with solid me-dia containing 2 mg/mL of the tested compounds followed incubation at 37°C for 24h and 30°C for 48h for bacteria and fungi, respectively. The inhibition of microbial growth was judged by comparison with a control culture prepared without any sample tested. Ciprof-loxacin, vancomycin, nitrofurantoin, cefuroxime, ampicillin or nystatin (Sigma) were used as a reference antibacterial or antifungal compounds, respectively.
(§6) Subsequently, the MIC (Minimal Inhibitory Concentration) of the compounds was ex-amined by the microdilution broth method, using their two-fold dilutions in Mueller- […]
(§7) Hinton broth or (for bacteria) and RPMI 1640 broth with MOPS (for fungi) prepared in 96-well polystyrene plates. Final concentrations of the compounds ranged from 1000 to 0.488 µg/ml. Microbial suspensions were prepared in 0.85% NaCl with an optical density of 0.5 McFarland standard. Next each bacterial or fungal suspension was added per each well containing broth and various concentrations of the examined compounds. After incuba-

[2] = system: Micrococcus luteus ATCC 10240; assay: Broth microdilution MIC/MBC
Source text: as §1
as §2, with “antimicrobials.” for “antimicrobials. All the used microbial cultures were first subcultured on nu-trient agar or Sabouraud agar at 35°C for 18-24 h or 30°C for 24-48 h for bacteria and fungi,”
(§8) Samples containing examined compounds were dissolved in dimethyl sulfoxide (DMSO). […]
as §6, §7

[3] = system: Proteus mirabilis ATCC 12453; assay: Broth microdilution MIC/MBC; details: ATCC12453
Source text: as §1
as §2, with “antimicrobials.” for “antimicrobials. All the used microbial cultures were first subcultured on nu-trient agar or Sabouraud agar at 35°C for 18-24 h or 30°C for 24-48 h for bacteria and fungi,”
as §8, §6, §7

[4] = system: Salmonella typhimurium ATCC 14028; assay: Broth microdilution MIC/MBC; details: Salmonella enterica
Source text: as §1
as §2, with “antimicrobials.” for “antimicrobials. All the used microbial cultures were first subcultured on nu-trient agar or Sabouraud agar at 35°C for 18-24 h or 30°C for 24-48 h for bacteria and fungi,”
as §8, §6, §7

[5] = system: Staphylococcus aureus ATCC 43300; assay: Broth microdilution MIC/MBC; details: Staphylococcus aureus ATCC 43300 (MRSA)
Source text: as §1
as §2, with “antimicrobials.” for “antimicrobials. All the used microbial cultures were first subcultured on nu-trient agar or Sabouraud agar at 35°C for 18-24 h or 30°C for 24-48 h for bacteria and fungi,”
as §8, §6, §7

[6] = system: Staphylococcus epidermidis ATCC 12228; assay: Broth microdilution MIC/MBC
Source text: as §1
as §2, with “antimicrobials.” for “antimicrobials. All the used microbial cultures were first subcultured on nu-trient agar or Sabouraud agar at 35°C for 18-24 h or 30°C for 24-48 h for bacteria and fungi,”
as §8, §6, §7

[7] = system: Bacillus subtilis ATCC 6633; assay: Broth microdilution MIC/MBC
Source text: Detailed procedures are presented in the Supplementary Materials. […]
as §1, §2, §3, §4, §5, §6, §7

[8] = system: Bacillus cereus ATCC 10876; assay: Broth microdilution MIC/MBC
Source text: as §1, §2, §3, §4, §5, §6, §7

[9] = system: Bordetella bronchiseptica ATCC 4617; assay: Broth microdilution MIC/MBC; details: ATCC4617
Source text: as §1, §2, §3, §4, §5, §6, §7

[10] = system: Escherichia coli ATCC 25922; assay: Broth microdilution MIC/MBC; details: ATCC25922
Source text: as §1, §2, §3, §4, §5, §6, §7

[11] = system: Klebsiella pneumoniae ATCC 13883; assay: Broth microdilution MIC/MBC; details: ATCC13883
Source text: as §1, §2, §3, §4, §5, §6, §7

[12] = system: Candida albicans ATCC 10231; assay: Broth microdilution MIC/MFC
Source text: as §1, §2, §3, §4, §5, §6, §7

[13] = system: Candida albicans ATCC 2091; assay: Broth microdilution MIC/MFC
Source text: as §1, §2, §3, §4, §5, §6, §7

[14] = system: Candida glabrata ATCC 90030; assay: Broth microdilution MIC/MFC
Source text: as §1, §2, §3, §4, §5, §6, §7

[15] = system: Candida krusei ATCC 14243; assay: Broth microdilution MIC/MFC
Source text: as §1, §2, §3, §4, §5, §6, §7

[16] = system: Candida parapsilosis ATCC 22019; assay: Broth microdilution MIC/MFC
Source text: as §1, §2, §3, §4, §5, §6, §7

SMILES: CN[C@H](CC(C)C)C(=O)N[C@H]1C(=O)N[C@@H](CC(N)=O)C(=O)N[C@H]2C(=O)N[C@H]3C(=O)N[C@H](C(=O)N[C@H](C(=O)O)c4cc(O)cc(O)c4-c4cc3ccc4O)[C@H](O)c3ccc(c(Cl)c3)Oc3cc2cc(c3O[C@@H]2O[C@H](CO)[C@@H](O)[C@H](O)[C@H]2O[C@H]2C[C@](C)(N)[C@H](O)[C@H](C)O2)Oc2ccc(cc2Cl)[C@H]1O [VA, vancomycin, reference compound]
MBC [1]: 1.95 µg/mL (≈ 1.35 µM) | MBC/MIC [1]: 2 | MIC [1]: 0.98 µg/mL (≈ 0.676 µM)

SMILES: C[C@@H]1[C@H](O)[C@@H](C)/C=C/C=C/CC/C=C/C=C/C=C/C=C/C(O[C@H]2O[C@H](C)[C@@H](O)[C@H](N)[C@@H]2O)CC2O[C@](O)(CC(O)C(O)CCC(O)CC(O)CC(O)CC(=O)O[C@H]1C)CC(O)C2C(=O)O (stereo partly drawn) [NY, nystatin, reference compound]
MFC [12]: 0.48 µg/mL (≈ 0.518 µM) | MFC/MIC [12]: 1 | MIC [12]: 0.48 µg/mL (≈ 0.518 µM) | MFC [13]: 0.24 µg/mL (≈ 0.259 µM) | MFC/MIC [13]: 1 | MIC [13]: 0.24 µg/mL (≈ 0.259 µM) | MFC [14]: 0.48 µg/mL (≈ 0.518 µM) | MFC/MIC [14]: 2 | MIC [14]: 0.24 µg/mL (≈ 0.259 µM) | MFC [15]: 0.24 µg/mL (≈ 0.259 µM) | MFC/MIC [15]: 1 | MIC [15]: 0.24 µg/mL (≈ 0.259 µM) | MFC [16]: 0.48 µg/mL (≈ 0.518 µM) | MFC/MIC [16]: 2 | MIC [16]: 0.24 µg/mL (≈ 0.259 µM)

Second part, led by results:

MIC [2]: 62.5 µg/mL (≈ 262 µM) | MIC ([2]; ATCC10240, read-out: MIC): 62.5 µg/mL (≈ 262 µM) | MIC [3]: 62.5 µg/mL (≈ 262 µM) | MIC [4]: 31.2 µg/mL (≈ 131 µM) | MIC [5]: 7.81 µg/mL (≈ 32.8 µM) | MIC [6]: 3.91 µg/mL (≈ 16.4 µM) | MIC ([6]; ATCC12228, read-out: MIC): 3.91 µg/mL (≈ 16.4 µM) | MIC [7]: 3.91 µg/mL (≈ 16.4 µM) | MIC ([7]; ATCC6633, read-out: MIC): 3.91 µg/mL (≈ 16.4 µM) | MIC [8]: 7.81 µg/mL (≈ 32.8 µM) | MIC ([8]; ATCC10876, read-out: MIC): 7.81 µg/mL (≈ 32.8 µM) | MIC [9]: 125 µg/mL (≈ 525 µM) | MIC [10]: 7.81 µg/mL (≈ 32.8 µM) | MIC [11]: 15.6 µg/mL (≈ 65.6 µM)
SMILES: O=C1CN(/N=C/c2ccc([N+](=O)[O-])o2)C(=O)N1 [NIT, nitrofurantoin, reference compound]
MBC ([2]; ATCC10240): 62.5 µg/mL (≈ 262 µM) | MBC [3]: 125 µg/mL (≈ 525 µM) | MBC [4]: 62.5 µg/mL (≈ 262 µM) | MBC [5]: 15.6 µg/mL (≈ 65.6 µM) | MBC ([6]; ATCC12228): 7.81 µg/mL (≈ 32.8 µM) | MBC ([7]; ATCC6633): 3.91 µg/mL (≈ 16.4 µM) | MBC ([8]; ATCC10876): 15.6 µg/mL (≈ 65.6 µM) | MBC [9]: > 1000 µg/mL | MBC [10]: 15.6 µg/mL (≈ 65.6 µM) | MBC [11]: 31.2 µg/mL (≈ 131 µM)

MIC [7]: 62.5 µg/mL (≈ 179 µM) | MIC ([7]; ATCC6633, read-out: MIC): 62.5 µg/mL (≈ 179 µM)
SMILES: CC1(C)S[C@@H]2[C@H](NC(=O)[C@H](N)c3ccccc3)C(=O)N2[C@H]1C(=O)O [APC, ampicillin, reference compound]

MIC [2]: 0.98 µg/mL (≈ 2.31 µM) | MIC ([2]; ATCC10240, read-out: MIC): 0.98 µg/mL (≈ 2.31 µM) | MIC ([6]; ATCC12228, read-out: MIC): 0.24 µg/mL (≈ 0.566 µM) | MIC [7]: 15.62 µg/mL (≈ 36.8 µM) | MIC ([7]; ATCC6633, read-out: MIC): 15.6 µg/mL (≈ 36.8 µM) | MIC [8]: 31.25 µg/mL (≈ 73.6 µM) | MIC ([8]; ATCC10876, read-out: MIC): 31.2 µg/mL (≈ 73.6 µM)
SMILES: CO/N=C(\C(=O)N[C@@H]1C(=O)N2C(C(=O)O)=C(COC(N)=O)CS[C@H]12)c1ccco1 [CFX, cefuroxime, reference compound]
